7 compounds from publication PMC10052977, “α,ω-Diacyl-Substituted Analogues of Natural and Unnatural Polyamines: Identification of Potent Bactericides That Selectively Target Bacterial Membranes” (International Journal of Molecular Sciences, 2023) can be followed below.

Bounds are passed on as bounds.

In series [1] the test system is Staphylococcus aureus ATCC 25923 or ATCC 29213. Kind of series: MIC, broth dilution (CA-SFM). It counts as cell-based. To be noted: Staphylococcus aureus ATCC 25923 or ATCC 29213; mean (n = 3); read-out: MIC S. a.
Series [2] has as its system MRSA ATCC 43300. Description: MIC, CO-ADD broth microdilution. It counts as cell-based, Staphylococcus aureus. To be noted: Staphylococcus aureus; MRSA ATCC 43300; mean (n = 2); read-out: MIC MRSA.
For series [3], the system named is Escherichia coli ATCC 25922. Description: MIC, CO-ADD broth microdilution. The class given is cell-based. Particulars: ATCC25922, mean (n = 2).
Series [4] relates to Pseudomonas aeruginosa PAO1 or ATCC 27853. Kind of series: MIC, broth dilution (CA-SFM). It counts as cell-based. Particulars: mean (n = 3).
In series [5] the test system is Klebsiella pneumoniae ATCC700603. Description: MIC, CO-ADD broth microdilution. Particulars: mean (n = 2). The class given is cell-based.
The subject of series [6] is Acinetobacter baumannii ATCC19606. Description: MIC, CO-ADD broth microdilution. To be noted: mean (n = 2). It counts as cell-based.
Series [7] relates to Candida albicans ATCC90028. Kind of series: Antifungal MIC, CO-ADD. It counts as cell-based. Particulars: mean (n = 2). Summed up: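 Yeast from 3-day YPD cultures was diluted in YNB broth to a final 2.5 × 10^3 CFU/mL and incubated at 35 °C for 36 h without shaking. C. albicans MICs were read by OD530 absorbance. QC used fluconazole and Z'-factor controls.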
The test system of series [8] is Cryptococcus neoformans ATCC208821. Kind of series: Antifungal MIC, CO-ADD. The class given is cell-based. Summed up: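 Fungal strains were grown on YPD agar at 30 °C for 3 days. Five colonies were used to make a yeast suspension of 1 × 10^6 to 5 × 10^6 CFU/mL, which was diluted in yeast nitrogen base (YNB) broth to 2.5 × 10^3 CFU/mL. Covered plates were incubated without shaking at 35 °C for 36 h. Fluconazole was the positive control, and quality was judged from antimicrobial controls and the Z'-factor.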

A short description of series [9]: Cytotoxicity assay (resazurin). The class given is cell-based, human. Particulars: human; HEK293 cells; mean (n = 2); highest dose tested 32 μg/mL; read-out: Cytotoxicity (concentration of compound at 50% cytotoxicity, IC50).
Series [10] concerns human red blood cells. Kind of series: Hemolytic assay. It counts as cell-based. To be noted: mean (n = 2). A digest of the protocol: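 Washed human erythrocytes at 0.5 × 10^8 cells/mL in 0.9% NaCl, shaken 10 min with compound, then held 1 h at 37 °C. Released hemoglobin in supernatant after centrifugation read at OD405; HC10 and HC50 from variable-slope sigmoidal fit against log concentration.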

Setting [11] is: ATCC208821, Cryptococcus neoformans ATCC208821, mean (n = 2).

In the case of `Cl.Cl.S=C(NCCCNCCCCCCCCNCCCNC(=S)NC(c1ccccc1)c1ccccc1)NC(c1ccccc1)c1ccccc1` [Compound 6d, N^1,N^8-Bis(3-(3-benzhydrylthioureido)propyl)octane-1,8-diaminium chloride], the melting point fell in the range of 113 to 115 °C. Also, the MIC in [1] came out at 6.25 µM. In series [2], the MIC was not above 0.32 µM. This compound also had an MIC in series [3] not above 0.32 µM. Also, the MIC in [4] turned out to be 100 µM. This compound also had a minimal inhibitory concentration (MIC) in series [5] of 40.9 µM. Also, in series [6], the MIC came to 5.1 µM. The same compound came in with an MIC in series [7] not above 0.32 µM. For the same compound, the MIC in [8] (setting [11]) was 20.5 µM. In series [9], the IC50 at 20 h was determined as 10.1 µM. The “Hemolysis (HC10, concentration at 10% hemolytic activity)” value in [10] was found to be 2.07 µM.

In the case of `O=C(O)CCC(=O)NCCCc1ccccc1` [Compound 8, 4-oxo-4-((3-phenylpropyl)amino)butanoic acid], the melting point was 94 to 95 °C.

`Cl.Cl.S=C(NCCCNCCCCCCCCCCCCNCCCNC(=S)NC(c1ccccc1)c1ccccc1)NC(c1ccccc1)c1ccccc1` [Compound 6f, N^1,N^12-Bis(3-(3-benzhydrylthioureido)propyl)dodecane-1,12-diaminium chloride] returned a melting point of 103 to 104 °C. In addition, in series [1], the MIC is more than 239 µM. Moreover, the MIC in series [2] was not above 0.3 µM. In addition, the minimum inhibitory concentration (MIC) in series [3] was 2.4 µM. This compound showed an MIC in series [4] of 120 µM. For the same compound, the MIC in series [5] was more than 38.2 µM. This compound also came in with an MIC in series [6] of more than 38.2 µM. This compound also displayed an MIC in series [7] not above 0.3 µM. Also, the MIC in [8] (setting [11]) is more than 38.2 µM. Besides, in series [9], the IC50 at 20 h was not above 0.298 µM. Moreover, the “Hemolysis (HC10, concentration at 10% hemolytic activity)” value in series [10] was more than 38.2 µM.

Turning to `O=C(CC(c1ccccc1)(c1ccccc1)c1ccccc1)NCCCNCCCCCCCCCCCCNCCCNC(=O)CC(c1ccccc1)(c1ccccc1)c1ccccc1.O=C(O)C(F)(F)F.O=C(O)C(F)(F)F` [Compound 18f, N^1,N^12-Bis(3-(3,3,3-triphenylpropanamido)propyl)dodecane-1,12-diaminium 2,2,2-trifluoroacetate], the MIC in series [1] is 25 µM; in series [2], less than 0.22 µM; in [3], more than 28.8 µM; in [4], 300 µM; in series [5] it was more than 28.8 µM; in series [6] it was more than 28.8 µM. In addition, the MIC in [7] (36 h) was less than 0.23 µM; in [8] (ATCC208821, 36 h, Cryptococcus neoformans ATCC208821, mean (n = 2)), less than 0.23 µM. In addition, in series [9], the IC50 at 20 h amounted to 0.409 µM. Also, the “Hemolysis (HC10, concentration at 10% hemolytic activity)” value in series [10] is not above 0.225 µM.

Turning to `O=C(CCc1ccccc1)NCCCNCCCCCCCNCCCNC(=O)CCc1ccccc1.O=C(O)C(F)(F)F.O=C(O)C(F)(F)F` [Compound 13c, N^1,N^7-Bis(3-(3-phenylpropanamido)propyl)heptane-1,7-diaminium 2,2,2-trifluoroacetate], the MIC was more than 271 µM in series [1]; more than 43.4 µM in series [2]; more than 43.4 µM in [3]; more than 271 µM in series [4]; more than 43.4 µM in series [5]; more than 43.4 µM in series [6]. Further, the MIC in [7] and in series [8] (setting [11]) was more than 43.4 µM throughout. Besides, in [9], the IC50 at 20 h was more than 43.4 µM. Besides, the “Hemolysis (HC10, concentration at 10% hemolytic activity)” value in series [10] is more than 43.4 µM.

For the compound `O=C(CC(c1ccccc1)c1ccccc1)NCCCNCCCCCCNCCCNC(=O)CC(c1ccccc1)c1ccccc1.O=C(O)C(F)(F)F.O=C(O)C(F)(F)F` [Compound 15b, N^1,N^6-Bis(3-(3,3-diphenylpropanamido)propyl)hexane-1,6-diaminium 2,2,2-trifluoroacetate], the MIC in series [1] is 12.5 µM; in series [2] it was not above 0.29 µM; in series [3], 4.6 µM; in series [4], 100 µM; in [5], more than 36.6 µM; in series [6], more than 36.6 µM. For the same compound, the MIC in [7] and in series [8] (setting [11]) was more than 36.6 µM in each case. In addition, the IC50 at 20 h in series [9] is more than 36.6 µM. Besides, in series [10], the “Hemolysis (HC10, concentration at 10% hemolytic activity)” value is more than 36.6 µM.

For the compound `O=C(O)CCC(=O)NCCC(c1ccccc1)c1ccccc1` [Compound 10, 4-((3,3-diphenylpropyl)amino)-4-oxobutanoic acid], the melting point was 134 to 137 °C.
